This passage reports MIC90, hemolysis and Activity results from ChEMBL document CHEMBL2380192, “Structure-activity relationship of potent antimicrobial peptide analogs of Ixosin-B amide” (Bioorg Med Chem Lett, 2013).

≈ marks a conversion by molar mass, not a printed value. Calls of active or inactive are those of the source. The rule behind the calls is not given here.

The subject of one series is Pseudomonas aeruginosa. The series can be described thus: Antimicrobial activity against Pseudomonas aeruginosa ATCC 27853 after 18 to 20 hrs by macrobroth dilution method. Type of series: functional.
The test system of a further series is Staphylococcus aureus. The series can be described thus: Antimicrobial activity against Staphylococcus aureus ATCC 25923 after 18 to 20 hrs by macrobroth dilution method. In kind it is functional. (In general: Dilution methods test growth across graded concentrations, often in twofold steps.)
The test system of series [1] is Escherichia coli. The series can be described thus: Antimicrobial activity against Escherichia coli ATCC 25922 after 18 to 20 hrs by macrobroth dilution method. In kind it is functional.
Series [2] can be described thus: Toxicity against human RBCs assessed as hemolysis at 100 uM after 1 hr by spectrophotometry. Type of series: cell-based, Erythrocyte. As to conditions: red blood cells (RBCs), read-out: Activity.
The subject of series [3] is Escherichia coli. Briefly: Induction of inner membrane permeabilization in Escherichia coli ML-35p at 1 uM measured every 2 mins by beta-galactosidase/ONPG hydrolysis assay. In kind it is functional, organism-based.
For series [4], the system named is Escherichia coli. The series can be described thus: Induction of outer membrane permeabilization in Escherichia coli ML-35p at 1 uM measured every 2 mins by beta-lactamase/nitrocefin hydrolysis assay. Type of series: functional, organism-based.
Series [5] relates to Escherichia coli. The series can be described thus: Induction of outer membrane permeabilization in Escherichia coli ML-35p at 40 to 100 uM measured every 2 mins by beta-lactamase/nitrocefin hydrolysis assay. In kind it is functional, organism-based.
In series [6] the test system is Escherichia coli. The series can be described thus: Induction of inner membrane permeabilization in Escherichia coli ML-35p at 10 to 100 uM measured every 2 mins by beta-galactosidase/ONPG hydrolysis assay. In kind it is functional, organism-based.
For series [7], the system named is Escherichia coli. The series can be described thus: Induction of outer membrane permeabilization in Escherichia coli ML-35p at 10 to 20 uM measured every 2 mins by beta-lactamase/nitrocefin hydrolysis assay. In kind it is functional, organism-based.

The term MIC90 denotes the lowest concentration that inhibits either 90% of growth or 90% of the strains tested, depending on the study. Read a low MIC90 as higher susceptibility. Take `CC1(C)S[C@@H]2[C@H](NC(=O)Cc3ccccc3)C(=O)N2[C@H]1C(=O)O` [PENICILLIN G]: the MIC90 in the series on Pseudomonas aeruginosa was over 100 µM; with Staphylococcus aureus, 0.125 µM (≈ 0.0418 µg/mL); with Escherichia coli [1] it was over 100 µM.

In the case of H-WKSYVRRWRS-OH, the hemolysis at 1 h, 100 µM in series [2] was -0.4%. Besides, the MIC90 against Pseudomonas aeruginosa is over 100 µM; with Staphylococcus aureus, over 100 µM; with Escherichia coli [1], 64 µM.

As for H-WKSYVRRWRSRY-OH, in [2], the hemolysis at 1 h, 100 µM stood at 1.5%. Also, the MIC90 in the series with Pseudomonas aeruginosa turned out to be 100 µM; with Staphylococcus aureus it was 32 µM; against Escherichia coli [1], 16 µM.

In the case of H-WKSYVRRW-OH, in series [2], the hemolysis at 1 h, 100 µM was 2%. In addition, the values for the MIC90 against Pseudomonas aeruginosa, in the series on Staphylococcus aureus and against Escherichia coli [1] were over 100 µM, 100 µM and 64 µM, respectively.

On to H-WWSYVRRWRSR-OH, for which the outcome in the series on Escherichia coli [3] and in the series on Escherichia coli [4] was inactive. In addition, the outcome in the series on Escherichia coli [5], in the series with Escherichia coli [6] and with Escherichia coli [7] was Active. Further, in [2], the hemolysis at 1 h, 100 µM stood at 3.4%. The MIC90 against Pseudomonas aeruginosa was over 100 µM; against Staphylococcus aureus it was 8 µM; with Escherichia coli [1] it was 16 µM.

For the molecule H-GKSDVRRWRSRY-OH, the MIC90 against Pseudomonas aeruginosa, in the series on Staphylococcus aureus and against Escherichia coli [1] was over 100 µM each time.

As for H-WKSYVRRWRSR-OH, in [2], the hemolysis at 1 h, 100 µM was -1.2%. The MIC90 was over 100 µM against Pseudomonas aeruginosa, 32 µM against Staphylococcus aureus and 16 µM with Escherichia coli [1].

With H-SGIQPEQHSS-OH, the MIC90 against Pseudomonas aeruginosa, against Staphylococcus aureus and in the series on Escherichia coli [1] was over 100 µM each time.

Turning to H-EQHSSGKSDV-OH, the MIC90 with Pseudomonas aeruginosa, with Staphylococcus aureus and against Escherichia coli [1] was over 100 µM in each case.

As to H-WKSDVRRWRSRY-OH, the hemolysis at 1 h, 100 µM in [2] came out at 0.3%. Further, the MIC90 against Pseudomonas aeruginosa was over 100 µM; in the series on Staphylococcus aureus it was over 100 µM; against Escherichia coli [1], 64 µM.

For the molecule H-LWGTRSGIQP-OH, the MIC90 in the series on Pseudomonas aeruginosa, in the series with Staphylococcus aureus and in the series on Escherichia coli [1] was over 100 µM each time.

Consider H-KKSYVRRWRS-OH, for which the hemolysis at 1 h, 100 µM in series [2] was -0.6%. The MIC90 with Pseudomonas aeruginosa, in the series with Staphylococcus aureus and against Escherichia coli [1] was over 100 µM each time.

Consider GENTAMICIN, for which the MIC90 was found to be 0.35 µM in the series with Pseudomonas aeruginosa, 0.1 µM against Staphylococcus aureus and 1 µM against Escherichia coli [1].

As to H-QLKVDLWGTR-OH, the MIC90 against Pseudomonas aeruginosa, in the series on Staphylococcus aureus and against Escherichia coli [1] was over 100 µM each time.

With H-WKSYVRRWR-OH, the hemolysis at 1 h, 100 µM in series [2] came to 1.1%. Moreover, the MIC90 with Pseudomonas aeruginosa is over 100 µM; against Staphylococcus aureus, 64 µM; with Escherichia coli [1] it was 64 µM.

With “H-QLKVDLWGTRSGIQPEQHSSGKSDVRRWRSRY-NH2 [Ixosin-B-amide]”, the MIC90 in the series on Pseudomonas aeruginosa was over 100 µM; in the series on Staphylococcus aureus it was over 100 µM; against Escherichia coli [1], 80 µM.
